Laboratory results as given in patent US20230257383A1, “COMPOUND SERVING AS BTK INHIBITOR, PREPARATION METHOD THEREFOR, AND USE THEREOF” (CHENGDU HYPERWAY PHARMACEUTICALS CO., LTD., priority 2020, published 2023).
Read-outs that look alike come from different tables or passages of the source.

How the values were obtained:
[1] = Liver microsome metabolic stability test (human); assay type: in vitro ADME; conditions: liver microsomes, read-out: CLint (μL/min/mg) Human
Procedure: (§1) 1: To the sample wells of T0, T5, T10, T20, T30, T60 and NCF60, 10 μL of the test or reference working solution and 80 μL of microsome working solution (hepatic microsome with a protein concentration of 0.5 mg/mL) were added, and to Blank60 well, only the microsome working solution was added. Then samples of the Blank60, T5, T10, T20, T30 and T60 other than TO and NCF60 were placed in a 37° C. water bath and pre-incubated for about 10 min.
(§2) 2: To the TO sample well, 300 μL of stop solution (containing 200 ng/mL tolbutamide and 200 ng/mL labetalol in acetonitrile solution) was added first, followed by 10 μL of NADPH regeneration system working solution.
(§3) 3: After the pre-incubation of Blank60, T5, T10, T20, T30 and T60 incubation plates, 10 μL of NADPH regeneration system working solution was added to each sample well to start the reaction, and 10 μL of 100 mM potassium phosphate buffer was added to the NCF60 sample well.
(§4) 4: After incubation for an appropriate time (such as 5, 10, 20, 30 and 60 min), to each test sample well and control well of the Blank60, T5, T10, T20, T30, T60 and NCF60 plates, 300 μL of stop solution was added to terminate the reaction.
(§5) 5: All sample plates were shaken to mix well and centrifuged at 4000 rpm for 20 min, and 100 μL of the supernatant of the test sample or control sample was taken and diluted with 300 μL of pure water for LC-MS/MS analysis.
(§6) 6: Data analysis: T1/2 and CLint(mic) (μL/min/mg) values were calculated according to the first-order elimination kinetics. The first-order elimination kinetics equation was: […]

[2] = system: TMD8 mouse subcutaneous xenograft tumor; test: TMD8 pharmacodynamic model test; assay type: in vivo; conditions: same dose of 10 mg/kg, FIG. 1
Procedure: Test Example 7: TNMD8 Pharmacodynamic Model Test
Human diffuse large B-cell lymphoma TMD8 cells were monolayer-cultured in vitro in RPNHI1640 medium with […], 100 U/mL penicillin and 100 μg/mL streptomycin, in a 37° C., […] incubator. Routine digestion with trypsin-EDTA was performed twice a week for passaging. When the cell density was […] and the number reached the requirement, cells were harvested, counted and inoculated. 0.2 ml (1×10^7 cells) of TMVD8 cells (added with matrigel at a volume ratio of 1:1) were subcutaneously inoculated on the right back of each mouse. The mice were administered in groups when the average tumor volume reached about 137 mm^3. Tumor diameters were measured twice a week with vernier calipers. The tumor volume was calculated by the formula V=0.5 a×b^2, where a and b represent the long and short diameters of the tumor, respectively.

[3] = Liver microsome metabolic stability test (rat); assay type: in vitro ADME; conditions: liver microsomes, read-out: CLint (μL/min/mg) Rat
Procedure: as §1, §2, §3, §4, §5, §6

TMD8 cell proliferation = test: In vitro cell proliferation inhibitory activity test (CTG), TMD8; assay type: cell-based; conditions: Homo sapiens, TMD8, 72 h, TMD8 cells
Procedure: (§7) Test Example 4: In Vitro Cell Proliferation Inhibitory Activity Test
(§8) Cells were cultured in 1640 medium, added with 10% inactivated FBS and 1% double antibiotics, and cultured at 37° C. and 5% CO2.
(§9) (1) Cells were routinely cultured until the cell density was 80%-90%, and the cells were harvested when their number reached the requirement.
(§10) (2) Cells were resuspended with corresponding culture medium, counted, and prepared into cell suspension at appropriate density.
(§11) (3) The cell suspension was added to a 96-well plate, 100 μL per well.
(§12) (4) Cells were cultured overnight in a 37° C., 5% CO2 incubator.
(§13) (1) The compounds to be tested were diluted with DMSO to make a stock solution with a final concentration of 20 mM for later use.
(§14) (2) The stock solution was diluted 10 times from 20 mM to 2 mM with DMSO, and then diluted 3 times from 2 mM to 9 concentrations.
(§15) (3) The blank control wells were cells plus 0.5% DMSO, as high-reading control wells.
(§16) (4) Wells with no cells and only medium were used as low-reading control wells.
(§17) 4: Cell treatment with compound
(§18) (1) 24 h after the cells were plated, the compounds acted alone, and 99 μL of growth medium was added to each well, followed by 1 μL of the compound prepared in step 3. The plate was shaken gently to mix uniformly, and then placed in a 37° C., 5% CO2 incubator.
(§19) (2) The cell plate was placed in an incubator for 72 h.
(§20) 5: Detection by CTG method
(§21) (1) The cell plate to be tested was placed at room temperature for 30 min, and 100 μL of medium was discarded from each well.
(§22) (2) 100 μL of CTG reagent (CelltiterGlo kit) was added to each well, placed on a fast shaker for 2 min, and stood at room temperature in the dark for 30 min.
(§23) (3) The chemiluminescent signal value was read with the Envision instrument.
(§24) IC50 was calculated by using GraphPad Prism 8 software. The IC50 (half inhibitory concentration) of the compound was derived using the following nonlinear fitting formula, and the results are shown in the following table:
(§25) Y=Bottom+(Top−Bottom)/(1+10^((Log IC50−X)×HillSlope))
(§26) X: log value of compound concentration, Y: inhibition rate (% inhibition)
(§27) Inhibition rate (% inhibition)=(reading of high-reading control well-reading of compound well)/(reading of high-reading control well-reading of low-reading control well)×100

[4] = system: NCI-N87 cell proliferation; test: In vitro cell proliferation inhibitory activity test (CTG), NCI-N87; assay type: cell-based; conditions: Homo sapiens
Procedure: as §7, §8, §9, §10, §11, §12, §13, §14, §15, §16, §17, §18, §19, §20, §21, §22, §23, §24, §25, §26, §27

HER2 kinase = HER2 kinase (Homo sapiens, UniProt P04626); test: HER2 kinase activity test (HTRF); assay type: biochemical
Procedure: Test Example 5: HER2 Kinase Activity Test
1. Her2 Kinase test steps
2) 100 nl of the diluted compound working solution was transferred into each well of a reaction plate (784075, Greiner) by an Echo 550 liquid hander. The reaction plate was sealed with a sealing film and centrifuged at 1000 g for 1 min.
3) 1 ng/μL Her2 kinase solution was prepared with 1× kinase reaction buffer.
4) 5 μL of the kinase solution prepared above was added to each well of the reaction plate. The plate was sealed with a sealing film, centrifuged at 1000 g for 1 min, and placed at room temperature for 10 min.
5) A mixture of 2× kinase substrate and ATP was prepared by using 1× kinase reaction buffer, and the 2× Her2 kinase substrate was 2 μM TK-substrate-biotin and 4 μM ATP
6) 5 μL of the mixture of 2× TK-substrate-biotin and ATP was added to the reaction plate, centrifuged at 1000 g for 30 seconds to start the reaction.
7) Her2 kinase test was performed at room temperature for 50 min of reaction.
9) 10 μL of the mixture of Sa-XL 665 and TK-antibody-Cryptate was added to each well, centrifuged at 1000 g for 30 seconds, and reacted at room temperature for 1 h.
10) The fluorescence signals at 615 nm (Cryptate) and 665 nm (XL665) were read by Envision 2104.
1) The percentage inhibition was calculated as follows: […]
Ratiopositive control: average value of Ratio 665/615 nm of all positive control wells in the plate.
Rationegative control: average value of Ratio 665/615 nm of all negative control wells in the plate.
2) Calculation of IC50 and fitting of dose-effect curve of compound:
The IC50 of the compound was derived using the following nonlinear fitting formula with GraphPad 6.0.
Y=Bottom+(Top−Bottom)/(1+10^((Log IC50−X)×HillSlope)).
X: log value of compound concentration; Y: percentage inhibition of compound

BT474 cell proliferation = test: In vitro cell proliferation inhibitory activity test (CTG), BT474; assay type: cell-based; conditions: Homo sapiens, BT-474, BT474 cell proliferation
Procedure: as §7, §8, §9, §10, §11, §12, §13, §14, §15, §16, §17, §18, §19, §20, §21, §22, §23, §24, §25, §26, §27

[5] = Blood-brain barrier permeability test, oral, SD rats; assay type: in vivo; conditions: rat, oral 10 mg/kg single dose
Procedure: Test Example 6: Blood-Brain Barrier Permeability Test
Each test compound was administered orally at a single dose of 10 mg/kg to SD rats for pharmacokinetic study. Each group included 9 rats. The test compound was dissolved in 5% DMSO+10% solutol+85% saline, vortexed for 1-2 min, and ultrasonicated for 5-10 min to prepare into a colorless, transparent and clear administration solution. Animals were fasted overnight before administration. 1 h, 2 h, and 4 h after administration, three SD rats were selected from each group to take about 0.2-0.3 mL of blood through their orbit. The blood sample was placed on ice once collected, and centrifuged to separate the plasma within 15 min (centrifugation conditions: 8000 rpm, 1 min, room temperature). The collected plasma was stored at −20° C. before analysis. Immediately after blood collection, the cerebrospinal fluid and brain tissue were collected. The cerebrospinal fluid was draw out by dural puncture with a micro-sampler syringe under direct vision. Namely, about 100 μl of cerebrospinal fluid was collected with a 100 μl micro sample syringe from the rat that was anesthetized by chloral hydrate, with the head-fixed, the back hair-cut off, a transverse incision (2 cm) made at the line connecting the roots of the two ears, and the muscle layer of the neck and skull base bluntly scraped to expose the foramen magnum. The cerebrospinal fluid was stored at −20° C. before analysis. The rat then was sacrificed immediately, with its head cut off. The dissected brain tissue, with the surface capillaries peeled off, was weighed, added with 3 times the amount of cold saline, homogenized by a homogenizer for 1 min, and stored at −20° C. before analysis. 20 μL of plasma sample and brain homogenate sample was respectively added into 200 μL of working internal standard solution (the same volume of vehicle was added to the blank instead of internal standard), vortexed for 1 min, and centrifuged at 13500 rpm for 10 min. 100 μL of the supernatant was taken and analyzed by LC-MS/MS. 20 μL of the cerebrospinal fluid was added into 60 μL of working internal standard solution (the same volume of vehicle, instead of internal standard, was added to the blank), vortexed for 1 min, and centrifuged at 13500 rpm for 10 min. 50 μL of the supernatant was taken and analyzed by LC-MS/MS.

DOHH2 cell proliferation = test: In vitro cell proliferation inhibitory activity test (CTG), DOHH2; assay type: cell-based; conditions: Homo sapiens, DOHH-2
Procedure: as §7, §8, §9, §10, §11, §12, §13, §14, §15, §16, §17, §18, §19, §20, §21, §22, §23, §24, §25, §26, §27

Sequence of HER2 kinase (P04626 23-1255): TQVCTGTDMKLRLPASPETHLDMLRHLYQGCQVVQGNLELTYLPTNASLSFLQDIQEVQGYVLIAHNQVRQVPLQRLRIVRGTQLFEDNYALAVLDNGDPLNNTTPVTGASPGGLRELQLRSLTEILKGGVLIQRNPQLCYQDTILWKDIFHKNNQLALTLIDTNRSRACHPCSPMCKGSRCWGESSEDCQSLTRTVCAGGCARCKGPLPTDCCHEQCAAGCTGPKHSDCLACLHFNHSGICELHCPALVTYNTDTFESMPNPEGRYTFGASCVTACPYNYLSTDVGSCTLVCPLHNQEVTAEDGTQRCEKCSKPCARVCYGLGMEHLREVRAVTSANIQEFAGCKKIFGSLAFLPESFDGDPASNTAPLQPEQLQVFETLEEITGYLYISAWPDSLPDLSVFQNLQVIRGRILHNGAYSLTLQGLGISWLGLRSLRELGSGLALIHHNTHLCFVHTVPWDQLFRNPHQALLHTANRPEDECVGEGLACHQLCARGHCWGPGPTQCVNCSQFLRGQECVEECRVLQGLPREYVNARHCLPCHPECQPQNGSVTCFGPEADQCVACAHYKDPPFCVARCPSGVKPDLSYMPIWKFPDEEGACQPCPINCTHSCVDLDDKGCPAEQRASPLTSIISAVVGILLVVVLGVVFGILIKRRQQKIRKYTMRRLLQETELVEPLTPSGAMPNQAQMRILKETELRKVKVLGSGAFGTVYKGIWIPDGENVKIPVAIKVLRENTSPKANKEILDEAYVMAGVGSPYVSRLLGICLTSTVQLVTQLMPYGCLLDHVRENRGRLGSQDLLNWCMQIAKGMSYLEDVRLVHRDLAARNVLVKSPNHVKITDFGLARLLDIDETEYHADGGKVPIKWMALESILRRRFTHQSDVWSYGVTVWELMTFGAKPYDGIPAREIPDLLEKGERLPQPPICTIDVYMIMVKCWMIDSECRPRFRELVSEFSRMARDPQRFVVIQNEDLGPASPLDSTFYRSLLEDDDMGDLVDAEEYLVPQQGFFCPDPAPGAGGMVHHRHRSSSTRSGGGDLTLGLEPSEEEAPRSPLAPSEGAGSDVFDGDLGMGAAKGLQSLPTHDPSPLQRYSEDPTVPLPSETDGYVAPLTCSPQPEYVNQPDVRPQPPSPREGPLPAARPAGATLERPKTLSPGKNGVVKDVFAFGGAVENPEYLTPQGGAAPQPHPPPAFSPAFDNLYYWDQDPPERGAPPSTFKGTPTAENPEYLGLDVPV

For `COc1cccc(Oc2ccc(-c3nc(C4CCC(CO)OC4)n4ccnc(N)c34)cc2)c1C#N` (single isomer, unassigned) [Example 89-P1], the microsomal CLint [1] was < 9.6 µL/min/mg, the “inhibitory effect against the tumor compared with ARQ-531 and ibrutinib” value [2] was “significantly better inhibitory effect against the tumor than the clinical phase II drug ARQ-531 and the marketed drug ibrutinib” and the microsomal CLint [3] was 15.7 µL/min/mg. The IC50 (TMD8 cell proliferation) was 4.3 nM.

Compound `Nc1nccn2c(C34CCC(CO)(CC3)OC4)nc(-c3ccc(C(F)(F)c4cccc(F)c4F)cc3)c12` [Example 130] has an IC50 [4] of 100 nM, an IC50 (HER2 kinase) of 4.35 nM and an IC50 (BT474 cell proliferation) of 89.9 nM.

`CC#CC(=O)N1CC[C@@H](n2c(=O)n(-c3ccc(Oc4ccccc4)cc3)c3c(N)ncnc32)C1` [Tirabrutinib, reference compound] gave a concentration at 1 h ([5]; brain, time point 1 h, read-out: Drug concentration in brain tissue) of 84 ng/g, a concentration at 2 h ([5]; brain, time point 2 h, read-out: Drug concentration in brain tissue) of 31.1 ng/g and a concentration at 4 h ([5]; brain, time point 4 h, read-out: Drug concentration in brain tissue) of 13.3 ng/g. For the same compound, the Kp at 1 h ([5]; brain/plasma, time point 1 h, read-out: Brain tissue/plasma) was 0.118, the Kp at 2 h ([5]; brain/plasma, time point 2 h, read-out: Brain tissue/plasma) was 0.06 and the Kp at 4 h ([5]; brain/plasma, time point 4 h, read-out: Brain tissue/plasma) was 0.054. It also gave a concentration at 1 h ([5]; plasma, time point 1 h, read-out: Plasma drug concentration) of 713 ng/mL, a concentration at 2 h ([5]; plasma, time point 2 h, read-out: Plasma drug concentration) of 515 ng/mL and a concentration at 4 h ([5]; plasma, time point 4 h, read-out: Plasma drug concentration) of 226 ng/mL. The microsomal CLint [1] was 13.1 µL/min/mg, the IC50 (DOHH2 cell proliferation) was 8090 nM and the microsomal CLint [3] was 32.9 µL/min/mg. It also gave an IC50 (TMD8 cell proliferation) of 158 nM.
